According to US20050143453A1, “Selective preventing and therapeutic agents for progressive lesion after organic damage” (priority 2000, published 2005):
Like-named read-outs stand apart in the source and are kept apart here.

Test system: induction of effector macrophage by contact of human PBMC with lipopolysaccharide
Assay: SPFC production by LPS stimulation (Test Example 1)
Format: cell-based
Description: A suppressive effect of the test compound to effector macrophage induction was investigated in vitro by an induction and production system of spontaneous plaque-forming cell (SPEC) mentioned in M. Ishibashi, S. Jiang, Y. Kokado, S. Takahara, T. Sonoda: Immunopharmacologic effects of immunosuppressive agents explored by a new effector generation assay. Transplant Proc., 21: 1854-1858, 1989.
Heparin-added peripheral blood (40 ml) was collected from a healthy person and the same amount of EDTA-added physiological saline was added. PBMC were obtained by a specific gravity centrifugal method using Ficoll-Hypaque (manufactured by Pharmacia Fine Chemicals). Self-plasma was added thereto and allowed to stand at 37° C. for 10 minutes and platelets were removed by a low-speed centrifugal separation. RPMI 1640 liquid containing 15 μg/ml of gentamicin and 2 mM L-glutamine was used for washing the PBMC. Concentration of the PBMC was adjusted to 2×10^6 cells/ml using the same liquid.
Each 200 μl of a solution containing 2×10^6 PBMC/ml prepared in the step 1 were added to each well of a micro test plate, lipopolysaccharide (hereinafter, abbreviated as LPS) was diluted with the RPMI 1640 liquid to make the final concentration 80 μg/ml and the said LPS solution was added to each well of the 200 μl-micro test plate. Further, each 50 μl of human serum of type AB were added so as to make the concentration 10% by weight. Two such micro test plates were prepared.
After that, to the above two micro test plates was added a solution where the test compound was diluted with 1% by weight of DMSO so as to make the concentration of the test compound 1 μM. Similarly were prepared each two micro test plates where the final concentrations of the test compound were 0.1 μM, 0.01 μM and 0.001 μM.
The culture liquid prepared as such was incubated for 6 days at 37° C. in 5% CO2.
The effector macrophage induced after the incubation was all recovered using a rubber-policeman (spatula made of rubber). A Hanks solution containing 5 μg/ml of gentamicin was used for washing and, using the said solution, there was prepared a solution where the concentration of the induced effector macrophage was 2×10^6 per ml.
With regard to autologous erythrocytes, those which were preserved at 4° C. in a phosphate physiological saline (hereinafter, abbreviated as PBS) to which 0.1% by weight of AB serum and autologous erythrocytes obtained from PBMC separation were used were used. The preserved autologous erythrocytes were washed for three times with a Hanks solution to which no serum was added and made into a solution of 4% by weight concentration using the said Hanks solution. Poly-L-lysine was added to a Terasaki plate and washed with PBS every 20 minutes at 37° C., the above-mentioned autologous erythrocyte solution was added thereto immediately, the mixture was allowed to stand at 37° C. for 30 minutes and the erythrocytes which were not adhered to the plate were removed to prepare a Terasaki plate to which self-erythrocytes in a monolayer were adhered.
A Hanks solution (4 μl) was added to the said Terasaki plate, 4 μl of a solution containing the induced effector macrophage obtained in the step 3 were added thereto and the mixture was allowed to stand at 37° C. for 2 hours. After completion of the reaction, it was fixed by formalin. Numbers of the produced SPFC which were adhered or phagocytized were measured.
A mean SPFC production number was calculated from the measured values of SPFC production when the concentration of the test compound was the same. SPFC production number per 1×10^6 of the induced effector macrophage was calculated and, from the recovered induced effector macrophage numbers, total SPFC production amount (S2) was calculated.
As a control, no test compound was added and the same operation as above was carried out to calculate the total SPFC production amount (S1). […]

**Q.** Which IC50 (Table 5, read-out: Inhibiting Concentration for SPEC Production by LPS Stimulation (μM: IC50)) does the source give for `CCOC(=O)C(=O)CCC(=O)O` [(9-1), ethyl 2-ketoglutarate] here?
**A.** Its IC50 is greater than 1 µM.

**Q.** And the IC50 (human PBMC with LPS 80 μg/ml, incubated 6 days, Table 1, read-out: SPFC Production Inhibiting Concentration by LPS Stimulation (μM: IC50))?
**A.** The IC50 was greater than 1 µM.
